In PubChem BioAssay AID330 (DTP/NCI, 2004):
Values joined by “and” are separate entries in the source; they are usually repeats but may differ in a detail not shown here. Equal values may be shown once. Inconclusive results and toxic doses are left out. How the source made its calls: active means survival T/C of 150% or more; inactive means T/C below 125% in these data.

Test system: P388 leukemia ip, CD2F1 mice, survival T/C
Experiment: NCI In Vivo Anticancer Drug Screen. Data for tumor model P388 Leukemia (intraperitoneal) in CD2F1 (CDF1) mice
Details: endpoint: median survival time, higher = longer survival
In short: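 Mice carrying the transplanted tumor received test compound or vehicle. Survival was recorded in each group, and the value is the treated-group measurement divided by that of the vehicle-treated control group.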

[1] = dose: 50.0 mg/kg/injection, schedule: Q01DX009 (ip), vehicle: saline with Tween-80
[2] = dose: 60.0 mg/kg/injection, schedule: Q01DX005 (ip), vehicle: saline with Tween-80
[3] = dose: 120.0 mg/kg/injection, schedule: Q01DX005 (ip), vehicle: saline with Tween-80
[4] = dose: 240.0 mg/kg/injection, schedule: Q01DX005 (ip), vehicle: saline with Tween-80

Measured: T/C

O=S1(=O)N2CN3CN(C2)CN1C3
inactive: dose: 6.25 mg/kg/injection, schedule: Q04DX003 (ip), vehicle: Klucel (hydroxypropylcellulose) (HPC) 106 % of control | dose: 12.5 mg/kg/injection, schedule: Q04DX003 (ip), vehicle: Klucel (hydroxypropylcellulose) (HPC) 104 % of control | dose: 25.0 mg/kg/injection, schedule: Q04DX003 (ip), vehicle: Klucel (hydroxypropylcellulose) (HPC) 111 % of control | dose: 50.0 mg/kg/injection, schedule: Q04DX003 (ip), vehicle: Klucel (hydroxypropylcellulose) (HPC) 106 % of control

C/C1=C\C[C@@H](O)/C(C)=C/[C@H]2OC(=O)[C@H](C)[C@@H]2CC1
inactive: dose: 8.75 mg/kg/injection, schedule: Q01DX005 (ip), vehicle: Klucel (hydroxypropylcellulose) (HPC) 94 % of control | dose: 17.5 mg/kg/injection, schedule: Q01DX005 (ip), vehicle: Klucel (hydroxypropylcellulose) (HPC) 102 % of control | dose: 35.0 mg/kg/injection, schedule: Q01DX005 (ip), vehicle: Klucel (hydroxypropylcellulose) (HPC) 100 % of control | dose: 70.0 mg/kg/injection, schedule: Q01DX005 (ip), vehicle: Klucel (hydroxypropylcellulose) (HPC) 86 % of control

CSCCC([NH-])C(=O)O.CSCCC([NH-])C(=O)O.[Ni+2] (stereo not given)
inactive: dose: 0.79 mg/kg/injection, schedule: Q01DX009 (ip), vehicle: saline 92 % of control | dose: 1.56 mg/kg/injection, schedule: Q01DX009 (ip), vehicle: saline 96 % of control | dose: 3.12 mg/kg/injection, schedule: Q01DX009 (ip), vehicle: saline 97 % of control | dose: 12.5 mg/kg/injection, schedule: Q01DX009 (ip), vehicle: saline 94 % of control

CNC(=O)NC(c1ccc(F)cc1)c1cc2c(cc1O)OCO2 (stereo not given)
inactive: dose: 60.0 mg/kg/injection, schedule: Q01DX005 (ip), vehicle: Klucel (hydroxypropylcellulose) (HPC) 96 % of control | dose: 120.0 mg/kg/injection, schedule: Q01DX005 (ip), vehicle: Klucel (hydroxypropylcellulose) (HPC) 96 % of control | dose: 240.0 mg/kg/injection, schedule: Q01DX005 (ip), vehicle: Klucel (hydroxypropylcellulose) (HPC) 87 % of control

CCCCOCN(COCCCC)C12CC3CC(CC(C3)C1)C2
inactive: [1] 113 % of control

Cc1cc2cc(N)ccc2[se]1
inactive: dose: 50.0 mg/kg/injection, schedule: Q01DX009 (ip), vehicle: suspension in saline 98 % of control | dose: 100.0 mg/kg/injection, schedule: Q01DX009 (ip), vehicle: saline 94 % of control | dose: 100.0 mg/kg/injection, schedule: Q01DX009 (ip), vehicle: suspension in saline 108 % of control | dose: 200.0 mg/kg/injection, schedule: Q01DX009 (ip), vehicle: saline 89 % of control | dose: 200.0 mg/kg/injection, schedule: Q01DX009 (ip), vehicle: suspension in saline 101 % of control

CC(=O)O.CC(=O)O.CC(=O)O.CC(=O)O.[Rh].[Rh]
inactive: dose: 1.56 mg/kg/injection, schedule: Q01DX009 (ip), vehicle: Klucel (hydroxypropylcellulose) (HPC) 111 % of control | dose: 3.13 mg/kg/injection, schedule: Q01DX009 (ip), vehicle: Klucel (hydroxypropylcellulose) (HPC) 117 % of control | dose: 6.25 mg/kg/injection, schedule: Q01DX009 (ip), vehicle: Klucel (hydroxypropylcellulose) (HPC) 99 % of control | dose: 6.25 mg/kg/injection, schedule: Q04DX003 (ip), vehicle: saline 100 % of control | dose: 12.5 mg/kg/injection, schedule: Q01DX009 (ip), vehicle: Klucel (hydroxypropylcellulose) (HPC) 115 % of control | dose: 12.5 mg/kg/injection, schedule: Q04DX003 (ip), vehicle: saline 100 % of control | dose: 25.0 mg/kg/injection, schedule: Q04DX003 (ip), vehicle: saline 122 % of control

COc1cc2c(cc1OC)C(=O)C(=C1C=CN(C)C=C1)N=C2
inactive: dose: 100.0 mg/kg/injection, schedule: Q04DX003 (ip), vehicle: saline 101 % of control | dose: 200.0 mg/kg/injection, schedule: Q04DX003 (ip), vehicle: saline 95 % of control | dose: 400.0 mg/kg/injection, schedule: Q04DX003 (ip), vehicle: saline 100 % of control

O=C(NNC(O)C(F)(F)F)c1ccccc1F (stereo not given)
inactive: dose: 100.0 mg/kg/injection, schedule: Q04DX002 (ip), vehicle: Klucel (hydroxypropylcellulose) (HPC) 99 % of control

O=S1(=O)CCC(c2ccccc2)C1 (stereo not given)
inactive: dose: 12.5 mg/kg/injection, schedule: Q01DX009 (ip), vehicle: saline with Tween-80 100 % of control | dose: 25.0 mg/kg/injection, schedule: Q01DX009 (ip), vehicle: saline with Tween-80 105 % of control | [1] 97 % of control

c1ccc(-n2cncn2)cc1
inactive: dose: 60.0 mg/kg/injection, schedule: Q01DX005 (ip), vehicle: saline 95 % of control | dose: 120.0 mg/kg/injection, schedule: Q01DX005 (ip), vehicle: saline 100 % of control | dose: 240.0 mg/kg/injection, schedule: Q01DX005 (ip), vehicle: saline 101 % of control

O=S1(=O)C2CCC(Cl)C1CCC2Cl (stereo not given)
inactive: dose: 75.0 mg/kg/injection, schedule: Q04DX003 (ip), vehicle: Klucel (hydroxypropylcellulose) (HPC) 98 % of control | dose: 150.0 mg/kg/injection, schedule: Q04DX003 (ip), vehicle: Klucel (hydroxypropylcellulose) (HPC) 100 % of control

O=C(/C(=C(/[O-])C(F)(F)F)[n+]1ccc2ccccc2c1)C(F)(F)F
inactive: dose: 100.0 mg/kg/injection, schedule: Q01DX001 (ip), vehicle: saline with Tween-80 100 % of control | dose: 200.0 mg/kg/injection, schedule: Q01DX001 (ip), vehicle: saline with Tween-80 100 % of control and 112 % of control | dose: 400.0 mg/kg/injection, schedule: Q01DX001 (ip), vehicle: saline with Tween-80 104 % of control and 97 % of control

CCOC(=O)C1=C(C(=O)c2ccc(C)cc2)C(c2cccc([N+](=O)[O-])c2)C(C(=O)c2ccc(C)cc2)=C(C(=O)OCC)N1
inactive: [2] 103 % of control | [3] 93 % of control | [4] 111 % of control

CSC(=Nc1cccnc1)NC#N
inactive: dose: 50.0 mg/kg/injection, schedule: Q01DX009 (ip), vehicle: Klucel (hydroxypropylcellulose) (HPC) 96 % of control | dose: 100.0 mg/kg/injection, schedule: Q01DX009 (ip), vehicle: Klucel (hydroxypropylcellulose) (HPC) 93 % of control | dose: 200.0 mg/kg/injection, schedule: Q01DX009 (ip), vehicle: Klucel (hydroxypropylcellulose) (HPC) 92 % of control

CCC1OC(=O)C1[Si](C)(C)C (stereo not given)
inactive: dose: 100.0 mg/kg/injection, schedule: Q01DX001 (ip), vehicle: saline 99 % of control | dose: 200.0 mg/kg/injection, schedule: Q01DX001 (ip), vehicle: saline 103 % of control | dose: 400.0 mg/kg/injection, schedule: Q01DX001 (ip), vehicle: saline 103 % of control

O=C1C=CC(=O)C2(CO)OC12 (stereo not given)
inactive: dose: 1.88 mg/kg/injection, schedule: Q04DX002 (ip), vehicle: saline with Tween-80 95 % of control | dose: 3.75 mg/kg/injection, schedule: Q04DX002 (ip), vehicle: saline with Tween-80 102 % of control

C=C(C)C1C2CC3(C)C4(CO4)C4OC4C3(O)C1C(=O)O2 (stereo not given)
inactive: dose: 0.31 mg/kg/injection, schedule: Q01DX005 (ip), vehicle: Klucel (hydroxypropylcellulose) (HPC) 97 % of control | dose: 0.62 mg/kg/injection, schedule: Q01DX005 (ip), vehicle: Klucel (hydroxypropylcellulose) (HPC) 100 % of control | dose: 1.25 mg/kg/injection, schedule: Q01DX005 (ip), vehicle: Klucel (hydroxypropylcellulose) (HPC) 102 % of control

O=S1(=O)CS/C(=N/C(=S)N(Cc2ccccc2)Cc2ccccc2)N1c1ccccc1
inactive: dose: 50.0 mg/kg/injection, schedule: Q04DX003 (ip), vehicle: saline with Tween-80 89 % of control | dose: 100.0 mg/kg/injection, schedule: Q04DX003 (ip), vehicle: saline with Tween-80 104 % of control | dose: 200.0 mg/kg/injection, schedule: Q04DX003 (ip), vehicle: saline with Tween-80 111 % of control

O=C(CN1CCCCC1)Nc1nc(-c2ccc(Cl)cc2)cs1
inactive: dose: 6.25 mg/kg/injection, schedule: Q01DX005 (ip), vehicle: saline with Tween-80 100 % of control | dose: 12.5 mg/kg/injection, schedule: Q01DX005 (ip), vehicle: saline with Tween-80 94 % of control | dose: 25.0 mg/kg/injection, schedule: Q01DX005 (ip), vehicle: saline with Tween-80 89 % of control

N/C(=N\O)c1c(Br)n(C2OC(CO)C(O)C2O)c2ncnc(N)c12 (stereo not given)
inactive: [2] 109 % of control and 122 % of control | [3] 120 % of control and 122 % of control | [4] 116 % of control | dose: 480.0 mg/kg/injection, schedule: Q01DX005 (ip), vehicle: saline with Tween-80 114 % of control

F[C](F)(F)[Hg][Br]
inactive: dose: 6.25 mg/kg/injection, schedule: Q04DX002 (ip), vehicle: saline 100 % of control | dose: 12.5 mg/kg/injection, schedule: Q04DX002 (ip), vehicle: saline 92 % of control | dose: 25.0 mg/kg/injection, schedule: Q04DX002 (ip), vehicle: saline 106 % of control
